Test results reported in US5659055A, “Cytoprotective fatty moiety compounds” (Virginia Commonwealth University, priority 1995, dated 1997).

System: PLA2 derived from plasma, sperm, platelets, human synovial fluid and N. naja cobra venom
Experiment: In vitro inhibition of PLA2 from a variety of sources (FIG. 8)
Format: biochemical

CCCCCCC(C/C=C\CCCCCCCC(=O)O)OC(=O)CCCCCCCCC(=O)O (stereo not shown) [RISE-1, Ricinoleic Acid--Sebacyl Ester]
in vitro inhibition of PLA2 from different sources: dose related, selective in vitro inhibition
